pEC50: −log10 of the molar value.
Biological target: Short transient receptor potential channel 4 (Mus musculus) (UniProt Q9QUQ5)
Experiment: TRPC4 positive allosteric modulators, dose response, cell-based, HEK293 TRPC4/mu-opioid, Fluo-4 calcium, EC20 DAMGO (AID 434941);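 also: calcium entry triggered by an EC20 dose of DAMGO at the co-expressed mu-opioid receptor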
Conditions: HEK293 TRPC4/mu-opioid cells, Fluo-4 calcium fluorescence

Chain of Short transient receptor potential channel 4 (Mus musculus) (Q9QUQ5 whole entry, looked up): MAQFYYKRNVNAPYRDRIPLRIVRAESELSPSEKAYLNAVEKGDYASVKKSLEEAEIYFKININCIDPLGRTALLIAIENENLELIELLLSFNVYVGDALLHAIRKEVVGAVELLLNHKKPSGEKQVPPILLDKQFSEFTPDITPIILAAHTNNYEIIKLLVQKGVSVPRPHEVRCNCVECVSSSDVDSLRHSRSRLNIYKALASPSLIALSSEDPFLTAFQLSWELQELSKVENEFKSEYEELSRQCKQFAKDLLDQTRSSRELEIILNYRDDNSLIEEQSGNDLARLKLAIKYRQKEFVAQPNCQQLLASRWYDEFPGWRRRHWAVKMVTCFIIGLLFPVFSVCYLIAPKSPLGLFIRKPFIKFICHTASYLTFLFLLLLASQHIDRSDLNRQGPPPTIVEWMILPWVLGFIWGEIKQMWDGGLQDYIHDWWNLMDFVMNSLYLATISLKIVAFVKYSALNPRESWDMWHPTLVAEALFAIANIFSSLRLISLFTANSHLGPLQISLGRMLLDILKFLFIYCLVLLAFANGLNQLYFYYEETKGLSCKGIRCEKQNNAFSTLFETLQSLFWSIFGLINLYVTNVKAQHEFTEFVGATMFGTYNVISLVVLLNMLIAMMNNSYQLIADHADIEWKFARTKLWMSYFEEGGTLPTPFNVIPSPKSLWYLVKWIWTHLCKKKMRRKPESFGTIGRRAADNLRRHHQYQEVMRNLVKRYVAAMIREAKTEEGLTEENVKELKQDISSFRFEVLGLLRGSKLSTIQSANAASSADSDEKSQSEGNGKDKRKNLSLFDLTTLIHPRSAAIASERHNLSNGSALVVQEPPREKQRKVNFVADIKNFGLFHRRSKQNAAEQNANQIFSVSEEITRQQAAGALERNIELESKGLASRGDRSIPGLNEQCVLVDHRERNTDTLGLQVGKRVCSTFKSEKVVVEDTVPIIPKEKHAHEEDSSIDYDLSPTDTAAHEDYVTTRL

Q: `Cn1c(O)c(/C=N/NC(=O)c2cc3ccccc3cc2O)c2ccccc21` was tested. Which pEC50 did it give?
A: 5.22

Source: PubChem BioAssay AID434941 (Johns Hopkins Ion Channel Center, 2010)
